Data: US8791138B2, “Compositions and methods for alleviating depression or improving cognition” (Clera Inc., priority 2008, dated 2014)

Legend:
[1] = biological target: T1, cloned dopamine D3 receptors (Homo sapiens, UniProt P35462); experiment: Radioligand Kd at cloned dopamine D3 receptors; type: binding
T1 construct: expressed in transfected cells

[2] = system: depressive symptoms in acute exacerbations of schizophrenia; conditions: amisulpride 400-800 mg/day, haloperidol 15-20 mg/day, risperidone 8 mg/day; Peuskens et al. 2002; cited from earlier work
[3] = system: duration of immobility in the forced swimming test; conditions: mice, Nakazawa et al. 2003, cited from earlier work
[4] = system: dopamine behavioral supersensitivity; experiment: Dopamine behavioral supersensitivity in animals; type: in vivo; conditions: P. Seeman, Unpublished Results
[5] = system: depression (Major Depressive Disorder); experiment: Clinical observation of treatment-resistant depression patients, Hamilton Scale for Depression; type: in vivo, human
Source text: All subjects were patients of a clinic for treatment-resistant depression at a tertiary hospital. Treatment-resistance was defined as a treatment failure on at least two other antidepressants prior to their referral to the clinic. Patients were deemed to be depressed by the referring psychiatrist as well as the treating psychiatrist according to DSM IV Criteria for Major Depressive Disorder.
The higher the value, the more severe the depression.

T1 sequence (P35462 whole entry): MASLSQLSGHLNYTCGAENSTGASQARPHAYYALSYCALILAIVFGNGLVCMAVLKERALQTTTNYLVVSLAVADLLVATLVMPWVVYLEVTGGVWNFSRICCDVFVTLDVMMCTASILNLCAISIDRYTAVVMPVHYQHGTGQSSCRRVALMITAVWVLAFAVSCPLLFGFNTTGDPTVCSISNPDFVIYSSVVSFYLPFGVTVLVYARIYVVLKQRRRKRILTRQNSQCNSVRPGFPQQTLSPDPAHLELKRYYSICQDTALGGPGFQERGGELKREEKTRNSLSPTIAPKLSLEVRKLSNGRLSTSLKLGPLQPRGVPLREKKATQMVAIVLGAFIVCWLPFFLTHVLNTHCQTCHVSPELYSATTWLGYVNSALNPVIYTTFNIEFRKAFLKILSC

CCN1CCC[C@H]1CNC(=O)c1c(O)c(Cl)cc(Cl)c1OC (racemic) [[^3H]raclopride] gave a Kd [1] of 1.6 nM.
For CCN1CCCC1CNC(=O)c1cc(S(=O)(=O)CC)c(N)cc1OC (stereo not shown) [amisulpride], the “Brief Psychiatric Rating Scale (BPRS) anxiety/depression subscore” value [2] is given as 5.6±6.1.
For O=c1cc(-c2ccc(O)cc2)oc2cc(O)cc(O)c12 [apigenin], the “duration of immobility in the forced swimming test” value [3] is listed as “significantly decreased”.
For CNCCC(Oc1ccc(C(F)(F)F)cc1)c1ccccc1 (stereo not shown) [fluoxetine], the “dopamine behavioral supersensitivity in animals” value [4] was “cause dopamine behavioral supersensitivity”.
In the case of O=C(CCCN1CCC(O)(c2ccc(Cl)cc2)CC1)c1ccc(F)cc1 [haloperidol], the “effect on apigenin-induced decrease in immobility in the forced swimming test” value ([3]; haloperidol 0.2 mg/kg) is given as “blocked”, the “Rating after end of haloperidol (Hamilton depression scale)” value (“Rating after end of haloperidol” for short) ([5]; Subject A, 5th week after starting medication, rating before 7-day regimen 14) is given as 9 (5th week) and the “Rating after end of haloperidol” value ([5]; Subject B, 5th week after starting medication, rating before 7-day regimen 18) is given as 15 (5th week). For the same compound, the “Rating after end of haloperidol” value ([5]; Subject C, 5th week after starting medication, rating before 7-day regimen 30) was 12 (5th week), the “Rating after end of haloperidol” value ([5]; Subject D, 5th week after starting medication, rating before 7-day regimen 40) was 32 (5th week) and the “Rating after end of haloperidol” value ([5]; Subject E, 4th week after starting medication, rating before 7-day regimen 23) was 7 (4th week). The “Rating after end of haloperidol” value ([5]; Subject F, 5th week after starting medication, rating before 7-day regimen 20) was 4 (5th week), the “Rating after end of haloperidol” value ([5]; Subject G, 5th week after starting medication, rating before 7-day regimen 24) was 13 (5th week) and the “severity of the depression after the 7-day treatment regimen” value ([5]; all patients, oral 0.2-0.3 mg/day graded for 7 days) was “decreased”. The “Brief Psychiatric Rating Scale (BPRS) anxiety/depression subscore” value [2] was 4.4±5.5.
For CN(C)CCCN1c2ccccc2CCc2ccccc21 [imipramine], the “dopamine behavioral supersensitivity in animals” value [4] was “cause dopamine behavioral supersensitivity”.
In the case of Cc1nc2n(c(=O)c1CCN1CCC(c3noc4cc(F)ccc34)CC1)CCCC2 [risperidone], the “Brief Psychiatric Rating Scale (BPRS) anxiety/depression subscore” value [2] is listed as 3.7±4.7.
